In patent US20080207594A1, “Use of Gsk-3 Inhibitors for Preventing and Treating Pancreatic Autoimmune Disorders” (Davelogen Aktiengesellschaft, priority 2005, published 2008):
“Also recorded” adds a separate entry of the source.

Columns and labels:
primary rat beta cells = assay: In vitro beta cell proliferation assay (Ki-67 / C-peptide staining of dispersed islets); format: cell-based; conditions: incubation 72 hours; for replication of primary rat beta cells, agent alone: FIG. 12, FIG. 14
Experimental: About 1.5×10^4 beta cells were inspected per experiment and the percentage of double positive cells was determined. The number of replicating beta cells is expressed relative to control cells maintained in 10% FCS (FIG. 9A). Prolactin treated cells served as a technical control. Identification of C-peptide and Ki67 double positive beta cells dispersed on adhesive slides was carried out by immunohistochemistry (FIG. 9B).
We investigated the growth promoting effects by monitoring the percentage of replicating beta cells in isolated rat islets. Replicating beta cells were identified by immunohistological staining of dispersed islets with antibodies against C-peptide, a fragment of proinsulin, and the cell division marker Ki-67.
Islets of Langerhans are isolated by standard Liberase digestion method from rat pancreata (Liberase™ Cl enzyme blend BMB Cat. # 1814-435, ROCHE).
Following the culture period the islets are dispersed gently by titration in Ca^2+ and Mg^2+ free PBS. […] The adherent islet cells are fixed and stained by standard immunofluorescence techniques for C-peptide, a fragment of proinsulin and Ki-67 a marker of proliferating cells.
An Olympus microscope equipped with an automatic image acquisition device (Olympus) is used for counting of C-peptide positive beta cells. Proliferating C-peptide/Ki-67 double positive beta cells are counted manually. Thereby the fraction of proliferating beta cells can be determined.

Pax4 [1] = assay: Pax4 transcription in INS-1E insulinoma cells, quantitative RT-PCR; format: cell-based, rat; conditions: INS-1E cells; for stimulation of Pax4 transcription relative to activin A (in words): FIG. 16
Source text: The response of the Pax4 gene to test compounds was investigated in the rat insulinoma cell line INS-1E. INS-1E cells are known to express Pax4 and to upregulate Pax4 levels in response to the treatment with activin-A and betacellulin. In the search for novel beta cell mitogens and/or beta cell protective agents the inventors treated INS-1E cells with different test compounds.
Total RNA from 8×10^4 cells growing on 4 cm^2 surface area of a tissue culture dish was extracted using Qiagen RNAeasy kit according to the instructions of the manufacturer (Qiagen) and 2 μg was converted into cDNA. Primers for pax4, 18S RNA, and rat RNA polymerase II largest subunit (RPB1) were designed using the Primer Express 1.5 Software from Applied Biosystems and sequences can be obtained upon request. Quantitative real-time PCR was performed using Applied Biosystems SDS 7000 detection system. Amplifications from 2 independent experiments were performed in duplicate for each transcript and mean values were normalized to the mean value of the reference RNA 18S RNA.
(§1) Cells were seeded at a density of 2×10^4 cells per cm^2 6 to 8 days before the treatment with chemicals. During the growth period the medium was changed once. The cells were incubated for different periods of time with chemicals under serum-free conditions. The cells were harvested in Qiagen RNAeasy cell lysate buffer and immediately transferred to dry ice. The samples were stored at −20° C. until RNA isolation was carried out.
as §1, with “RNA easy” for “RNAeasy”, “−20 degree” for “−20° C.”

Pax4 [2] = assay: Pax4 transcription in rat islets, quantitative RT-PCR; format: cell-based
Source text: The response of the Pax4 gene to two compounds was investigated in rat islets. […] No effects were observed on the expression levels of cyclophilin B and RNA polymerase II largest subunit (RPB1) indicating a specific regulation of the Pax4 gene.
Total RNA from 200 to 400 islets growing in wells with 4 cm^2 surface area of a tissue culture dish was isolated according to instruction of the manufacturer of Trizol™ reagent. To further purify the RNA and to remove remaining DNA contaminations RNA was treated with the Qiagen RNAeasy kit according to the instructions of the manufacturer (Qiagen) and about 1 μg was converted into cDNA. Primers for pax4, 18S RNA, and rat RNA polymerase II largest subunit (RPB1) were designed using the Primer Express 1.5 Software from Applied Biosystems. Quantitative real-time PCR was performed using Applied Biosystems SDS 7000 detection system. Amplifications from at least 2 independent experiments were performed in duplicate for each transcript and mean values were normalized to the mean value of the reference RNA 18S RNA.
Rat islets were isolated from Wistar rats and cultured as described (Brun et al., 2004, JCB; 167: 1123-1135). In brief, 10 ml ice-cold liberase solution (Roche) was injected into the pancreas via the common bile duct. After dissection the pancreas was incubated for 40 minutes at 37° C. and then further dissociated by repeated pipetting using a 10 ml pipette. Islets were isolated by applying digested tissue to a ficoll-gradient before they were manually picked using a stereomicroscope. Islets were placed in bacteriological wells and compounds were administered as indicated. Islets were harvested in Trizol™ and immediately transferred to dry ice. The samples were stored at −20° C. until RNA isolation was carried out.

INS-1E cells = assay: Protection against apoptotic signals, nucleosomal fragmentation (cell death detection ELISA) and morphology; format: cell-based, rat
Experimental: FIG. 7: Determination of cytokine or high glucose and fatty acid induced Nucleosomal-fragmentation in INS-1 cells. To induce apoptosis INS-1 cells were exposed to the cytokines IL-1 beta at 4 ng/ml and IFN-gamma at 1 U/ml (Cyt. in figure A) or glucose at […] and palmitate at […] (Pal/Gluc in figure B) for 24 hours. 1 hour before the application of these reagents indicated cell samples were treated with 10 μM 1-Azakenpaullone (AzaP) or 15 μM NG-monomethyl-L-arginine monoacetate (L-NMMA) an inhibitor of the inducible nitric oxide synthase (iNOS). Apoptosis was assessed by determination of nucleosomal accumulation in the cytosolic extracts using a cell death detection ELISA kit. Nucleosomal release is expressed relative to untreated control cells (Co.).
FIG. 8: Cell morphology of treated cells was inspected by light microscopy. Cell morphologies of untreated (A), Pal/Gluc (B) and Pal/Gluc+AzaP (C) treated cells are shown.
The beta cell line INS-1E was used to investigate anti-apototic effects of the compounds of the invention on beta cells. Apotosis was induced by culturing cells with a cytokine combination (interleukine-1beta/interferon gamma) or with high concentrations of both glucose and palmitate. 1-Azakenpaullone strongly (60%) inhibited cytokine-induced apoptosis (FIG. 7A), with a weaker effect (25%) against glucolipotoxicity induced apoptosis (FIG. 7B). The state of the treated and untreated cells was analyzed by microscopy.
INS-1E cells were cultured as described (Merglen et al., (2004) Endocrinology; 145: 667-678). Cells were seeded at a density of 1×10^4 cells per 96-well in 96 well plates in 200 μl culture medium for 3 days. Then, cells were cultured for 1 day in 100 μl medium containing 1% FCS and 5 mM glucose. […] The rate of apoptosis was measured by the specific determination of mono- and oligonucleosomes in the cytoplasmic fraction of cell lysates using a cell death detection ELISA kit (ROCHE Cat. No. 1774425). The assay is based on a quantitative sandwich-enzyme-immunoassay-principle using mouse monoclonal anti-histone and anti-DNA peroxidase antibodies. […]

## Cc1c[nH]c(-c2cnc(NCCNc3ccc(C#N)cn3)nc2-c2ccc(Cl)cc2Cl)n1 [CHIR99021]
Primary rat beta cells
  replication of primary rat beta cells, agent alone: trigger beta cell replication; also recorded: promotes replication of primary rat beta cells

## O=C1Nc2cc(Br)ccc2/C1=C1/Nc2ccccc2/C1=N\O [(2′Z,3′E)-6-Bromoindirubin-3′-oxime]
Pax4 [1]
  induction of Pax4 expression (in words): induction of Pax4 expression was also found

## COc1ccc(CNC(=O)Nc2ncc([N+](=O)[O-])s2)cc1 [GSK-3 inhibitor VIII, N-(4-Methoxybenzyl)-N′-(5-nitro-1,3-thiazol-2-yl)urea]
Pax4 [1]
  induction of Pax4 expression (in words): induction of Pax4 expression was also found

## CC(=O)O/N=C1/C(=C2/C(=O)Nc3cc(Br)ccc32)Nc2ccccc21 [(2′Z,3′ E)-6-Bromoindirubin-3′-acetoxime]
Pax4 [1]
  induction of Pax4 expression (in words): induction of Pax4 expression was also found

## NGF: nerve growth factor
Primary rat beta cells; FIG. 12
  replication of primary rat beta cells, growth factor combined with GSK3 inhibitor 1-Azakenpaullone: potentiate the growth promoting effects
Primary rat beta cells
  replication of primary rat beta cells, agent alone: not sufficient to trigger beta cell replication

## exendin-4
Primary rat beta cells
  replication of primary rat beta cells, agent alone: trigger beta cell replication

## GIP: incretin GIP (gastrin inhibitory protein) (YAEGTFISDYSIAMDKIHQQDFVNWLLAQKGKKNDWKHNITQ; Gastric inhibitory polypeptide; UniProt P09681 52-93, looked up)
Primary rat beta cells
  replication of primary rat beta cells, agent alone: trigger beta cell replication
Primary rat beta cells; FIG. 14
  replication of primary rat beta cells, GIP combined with GSK3 inhibitor CHIR99021: cooperative effects

## O=C1Cc2c([nH]c3ccc([N+](=O)[O-])cc23)-c2ccccc2N1 [Alsterpaullone]
Pax4 [1]; 20 μM
  induction of relative Pax4 expression compared to the control: about 7 fold

## O=C1Cc2c([nH]c3ccc(Br)cc23)-c2ncccc2N1 [1-Azakenpaullone]
Pax4 [2]
  Pax4 RNA levels compared with technical control activin-A: induces higher Pax4 RNA levels than activin-A
  time course of Pax4 RNA levels: transiently up-regulates Pax4 RNA levels
INS-1E cells; INS-1E exposed to toxic agents (Pal/Gluc), FIG. 8
  cell morphology by microscopy, signs of cell death: partially antagonizes this effect
INS-1E cells; INS-1E, glucose at 25 nM and palmitate at 0.04 nM for 24 hours, 10 μM compound 1 hour before, FIG. 7B
  inhibition of glucolipotoxicity induced apoptosis: 25%
INS-1E cells; Rattus norvegicus, INS-1E, IL-1 beta 4 ng/ml and IFN-gamma 1 U/ml for 24 hours, 10 μM compound 1 hour before, FIG. 7A, read-out: inhibition of cytokine-induced apoptosis
  inhibition at 10 µM: 60%
Pax4 [1]; 3 μM
  induction of relative Pax4 expression: about 6 fold

B1: BMP 4: TGF-beta family member (protein, UniProt P12644 293-408, looked up)
Bone morphogenetic protein 4: SPKHHSQRARKKNKNCRRHSLYVDFSDVGWNDWIVAPPGYQAFYCHGDCPFPLADHLNSTNHAIVQTLVNSVNSSIPKACCVPTELSAISMLYLDEYDKVVLKNYQEMVVEGCGCR
Pax4 [1]
  stimulation of Pax4 transcription relative to activin A (in words): hardly induced Pax4 gene transcription

B2: activin-A: technical control previously shown to activate Pax4 transcription in rat islets (protein, UniProt P08476 311-426, looked up)
Inhibin beta A chain: GLECDGKVNICCKKQFFVSFKDIGWNDWIIAPSGYHANYCEGECPSHIAGTSGSSLSFHSTVINHYRMRGHSPFANLKSCCVPTKLRPMSMLYYDDGQNIIKKDIQNMIVEECGCS
modifications: Inhibin beta A chain
Pax4 [2]
  time course of Pax4 RNA levels: more sustained increase in Pax4 RNA levels

B3: activin AB: protein related to activin A (protein, UniProt P08476 311-426; P09529 293-407, looked up)
Inhibin beta A chain: GLECDGKVNICCKKQFFVSFKDIGWNDWIIAPSGYHANYCEGECPSHIAGTSGSSLSFHSTVINHYRMRGHSPFANLKSCCVPTKLRPMSMLYYDDGQNIIKKDIQNMIVEECGCS
Inhibin beta B chain: GLECDGRTNLCCRQQFFIDFRLIGWNDWIIAPTGYYGNYCEGSCPAYLAGVPGSASSFHTAVVNQYRMRGLNPGTVNSCCIPTKLSTMSMLYFDDEYNIVKRDVPNMIVEECGCA
Pax4 [1]
  stimulation of Pax4 transcription relative to activin A (in words): almost equally potent in stimulating Pax4 transcription as activin A

B4: BMP 7: TGF-beta family member (protein, UniProt P18075 293-431, looked up)
Bone morphogenetic protein 7: STGSKQRSQNRSKTPKNQEALRMANVAENSSSDQRQACKKHELYVSFRDLGWQDWIIAPEGYAAYYCEGECAFPLNSYMNATNHAIVQTLVHFINPETVPKPCCAPTQLNAISVLYFDDSSNVILKKYRNMVVRACGCH
Pax4 [1]
  stimulation of Pax4 transcription relative to activin A (in words): hardly induced Pax4 gene transcription

B5: betacellulin: growth factor (protein, UniProt P35070 32-111, looked up)
Betacellulin: DGNSTRSPETNGLLCGDPEENCAATTTQSKRKGHFSRCPKQYKHYCIKGRCRFVVAEQTPSCVCDEGYIGARCERVDLFY
modifications: Betacellulin
notes: growth factor
Primary rat beta cells
  replication of primary rat beta cells, agent alone: does not influence replication of primary rat beta cells
